From patent US9326984B2, “Compounds and pharmaceutical compositions for treating disorders associated with the 5-HT1A and 5-HT2A receptors” (priority 2010, dated 2016)

Columns and labels:
5-HT2A receptors = target: T1, 5-HT2A receptors (Rattus norvegicus, UniProt P14842); experiment: In vitro affinity (radioligand binding inhibition) assay, 3[H]-ketanserin, rat cortex; settings: for inhibition at 0.3 µM / inhibition at 1 µM / inhibition at 3 µM: read-out: 5-HT2A Inhibition Percentage; for IC50: 3[H]-ketanserin 1 nM, rat cortex, 3-3000 nM in duplicate, read-out: 5-HT2A CI50; for 5-HT2A CI50/affinity compared with the comparative compound: comparison in words versus Flibanserin (and Example 1)
T1 construct: The assay tissue was rat cortex; from tissue; host or cells: rat cortex
Description: (§1) The determination of the activity of the synthesized compounds was conducted through assays assessing affinity with the 5-HT1A and 5-HT2A serotonin receptors. The assays used are based on the binding ratings of the substances being tested at different concentrations, compared to the affinity in the single concentration of the radioligands (markers) that have a specific affinity for these receptors.
(§2) These assays, known as binding assays and also known as inhibition experiments, are able to determine the affinity of a substance through the receptor, provided that this substance is soluble under the assay conditions.
(§3) In an inhibition experiment, the quantity of an inhibitor substance (non radioactive—sample or compound being tested) included in the incubation is the only variable, meaning that it is possible to determine for each test drug concentration, the binding inhibition percentage of the radioligand.
(§4) CI50 is a value defined as the concentration of an unbranded substance (test sample) required to inhibit the specific binding of the radioligand in 50% of the receptors.
(§5) The affinity assays with the 5-HT1A and 5-HT2A receptors of the compounds addressed by this invention were conducted by the Biochemical and Molecular Pharmacology Laboratory at the Biomedical Science Institute in Rio de Janeiro Federal University (UFRJ), using its own protocols.
(§6) […] The development of the experiment protocol to assess compounds with affinity for the 5-HT1A receptors was developed on the basis of the experiments conducted by Hall et al (Journal of Neurochemistry (1985) 44: 1685-1696); Mongeau et al (Brain Research (1992) 590: 229-238) and Peroutka (Journal of Neurochemistry (1986) 47: 529-540). The 5-HT2A receptors were based on the studies conducted by Johnson et al (Naunyn-Schmiedeberg's Arch. Pharmacol. (1996) 354 (2): 205-209); Leysen et al (Molecular Pharmacology (1982) 21: 301-314) and Nelson et al (Journal of Pharmacology and Experimental Therapeutics (1993) 265: 1272-1279).
(§7) In order to determine the affinity with the 5-HT2A receptors, 3[H]-ketanserin (1 nM) was used as a ligand and ketanserin (1 μM) as a non-specific ligand. The assay tissue was rat cortex. Table 1 below summarizes the CI50 values obtained for the inventive compounds presented in Examples 1 and 8. In order to determine the CI50 of these compounds, the inhibition assays were conducted using the compounds at concentrations of 3, 10, 30, 100, 300, 1000 and 3000 nM (in duplicate) for both receptors.

5-HT1A receptors = target: T2, 5-HT1A receptors (Rattus norvegicus, UniProt P19327); experiment: In vitro affinity (radioligand binding inhibition) assay, 3[H]-8-OH-DPAT, rat hippocampus; settings: for inhibition at 0.03 µM: 30 nM; for inhibition at 0.03 µM / inhibition at 0.1 µM / inhibition at 0.3 µM / IC50: rat hippocampus; for inhibition at 0.03 µM / inhibition at 0.1 µM / inhibition at 0.3 µM: read-out: 5-HT1A Inhibition Percentage; for inhibition at 0.1 µM: 100 nM; for inhibition at 0.3 µM: 300 nM; for IC50: 3[H]-8-OH-DPAT 1 nM, 3-3000 nM in duplicate, read-out: 5-HT1A CI50; for 5-HT2A/5-HT1A CI502A/CI501A: ratio of CI50 5-HT2A to CI50 5-HT1A; for 5-HT1A CI50 compared with the comparative compound: comparison in words/fold versus Flibanserin
T2 construct: The assay tissue was rat hippocampus; from tissue; host or cells: rat hippocampus
T2 sequence (P19327 1-422): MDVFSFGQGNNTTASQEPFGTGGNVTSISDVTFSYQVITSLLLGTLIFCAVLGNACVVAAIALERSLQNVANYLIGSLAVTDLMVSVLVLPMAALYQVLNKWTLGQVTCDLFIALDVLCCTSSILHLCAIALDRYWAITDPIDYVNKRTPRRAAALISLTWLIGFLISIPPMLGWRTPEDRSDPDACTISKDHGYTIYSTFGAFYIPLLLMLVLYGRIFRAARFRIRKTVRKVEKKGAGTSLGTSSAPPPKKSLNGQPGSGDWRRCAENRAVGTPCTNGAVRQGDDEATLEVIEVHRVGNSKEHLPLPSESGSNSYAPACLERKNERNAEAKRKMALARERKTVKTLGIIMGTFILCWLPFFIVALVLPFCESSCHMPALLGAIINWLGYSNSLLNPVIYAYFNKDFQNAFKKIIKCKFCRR
Description: as §1, §2, §3, §4, §5, §6
The affinity with the 5-HT1A receptors was assayed by using 3[H]-8-OH-DPAT (3[H]-8-hydroxy-N,N-dipropyl-2-aminotetraline) (1 nM) as a ligand, and 5-HT (5-hydroxytiptamine-serotonin) (10 μM) as a non-specific ligand. The assay tissue was rat hippocampus.
as §7

5-HT receptors = experiment: In vivo efficacy test: Serotonin Syndrome Model in rats (modified Irwin method); design: species or system rat; settings: 15 mg/kg intraperitoneal, observed 15, 30 and 60 minutes after administration
Description: For the efficacy assay, the compounds addressed by this invention were submitted to the modified Irwin assay. The assays were conducted by Porsolt, using a specific protocol for evaluation.
In order to determine the in vivo efficacy of the compounds addressed by this invention, the Serotonin Syndrome Model in rats was used. The model was based in the Irwin method (Psychopharmacologia (1968), 13: 222-257), adapted to assess the effects of seroton agonists pursuant to Martin et al (Journal of Pharmacol. Meth. (1985), 13: 193-200) and Ortman et al (Naunyn-Schmiedeberg's Arch. Pharmacol (1981), 316: 225-230).
Two animals from each group were assessed through a series of separate observations. Escitalopram was used as the positive control for the study.
Behavioral and physiological alterations as well as neurotoxicity symptoms, rectal temperature and pupil diameter were recorded.
Additionally, the specific signs related to the stimulation of the 5-HT receptors were observed and quantified, being: head twitches (HT), fore paw treading (FPT), flat body posture (FBP), hind limb splay (HLS), lower lip retraction (LLR) and spontaneous tail flicks (STF) (Straub).
The observations were conducted at 15, 30 and 60 minutes after administration of the compounds being tested.
The compounds were tested as set forth in Examples 1 and 7. As the comparative compound 1,3-dihydro-1-(2-(4-(3-(trifluoromethyl)phenyl)-1-piperazinyl)ethyl)-2H-benzimidizol-2-one (Flibanserin) was used. All the compounds were administered at a dose of 15 mg/kg, intraperitoneal.
The observations of the specific stimulation data of the 5-HT receptors by each compound are presented in the graph given in FIG. 1.

T1 sequence (P14842 whole entry): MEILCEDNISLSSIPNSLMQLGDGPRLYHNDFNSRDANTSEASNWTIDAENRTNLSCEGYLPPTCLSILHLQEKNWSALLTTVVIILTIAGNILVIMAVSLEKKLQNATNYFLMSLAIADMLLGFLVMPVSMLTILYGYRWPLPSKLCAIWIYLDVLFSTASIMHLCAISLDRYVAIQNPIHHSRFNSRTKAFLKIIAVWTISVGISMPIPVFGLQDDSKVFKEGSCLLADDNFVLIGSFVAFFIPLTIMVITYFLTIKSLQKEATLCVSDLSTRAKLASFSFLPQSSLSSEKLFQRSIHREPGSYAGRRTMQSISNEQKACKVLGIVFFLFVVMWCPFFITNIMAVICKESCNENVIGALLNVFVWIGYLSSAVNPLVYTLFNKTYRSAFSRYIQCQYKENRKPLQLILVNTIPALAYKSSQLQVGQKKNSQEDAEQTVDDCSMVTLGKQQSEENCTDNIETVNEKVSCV

Q: How did the inhibition at 0.3 µM (5-HT2A receptors) turn out when `Cc1ccccc1N1CCN(CCn2cnc3ccccc3c2=O)CC1` [Example 2, 3-(2-(4-o-tolylpiperazine-1-yl)ethyl)quinazoline-4 (3H)-one] was run?
A: 61%

Q: What about the inhibition at 1 µM (5-HT2A receptors) of the same compound?
A: 82%

Q: What about the inhibition at 0.03 µM (5-HT1A receptors) of the same compound?
A: 21%

Q: And the inhibition at 0.1 µM (5-HT1A receptors)?
A: 51%

Q: Which inhibition at 0.3 µM (5-HT2A receptors) does the source give for `CCc1nc2ccccc2c(=O)n1CCN1CCN(c2ccccc2Cl)CC1` [Example 11, 3-(2-(4-(2-chlorophenyl)piperazine-1-yl)ethyl)-2-ethylquinazoline-4 (3H)-one] here?
A: 25%

Q: What about the inhibition at 1 µM (5-HT2A receptors) of the same compound?
A: 52%

Q: What about the inhibition at 3 µM (5-HT2A receptors) of the same compound?
A: 79%

Q: What about the inhibition at 0.03 µM (5-HT1A receptors) of the same compound?
A: 5%

Q: What about the inhibition at 0.1 µM (5-HT1A receptors) of the same compound?
A: 26%

Q: And the inhibition at 0.3 µM (5-HT1A receptors)?
A: 38%

Q: With `N#Cc1ccccc1N1CCN(CCn2cnc3ccccc3c2=O)CC1` [Example 5, 3-(2-(4-(2-cyanophenyl)piperazine-1-yl)ethyl)quinazoline-4 (3H)-one] as the compound, how does the inhibition at 0.3 µM (5-HT2A receptors) read?
A: 38%

Q: What about the inhibition at 1 µM (5-HT2A receptors) of the same compound?
A: 78%

Q: And the inhibition at 0.03 µM (5-HT1A receptors)?
A: 12%

Q: What about the inhibition at 0.1 µM (5-HT1A receptors) of the same compound?
A: 49%

Q: `CCc1nc2ccccc2c(=O)n1CCN1CCN(c2ccccc2OC)CC1` [Example 9, 2-ethyl-3-(2-(4-(2-methoxyphenyl)piperazine-1-yl)ethyl)quinazoline-4 (3H)-one] was tested. Which inhibition at 0.3 µM (5-HT2A receptors) did it give?
A: 13%

Q: What about the inhibition at 1 µM (5-HT2A receptors) of the same compound?
A: 46%

Q: And the inhibition at 3 µM (5-HT2A receptors)?
A: 78%

Q: What about the inhibition at 0.03 µM (5-HT1A receptors) of the same compound?
A: 17%

Q: And the inhibition at 0.1 µM (5-HT1A receptors)?
A: 46%

Q: What about the inhibition at 0.3 µM (5-HT1A receptors) of the same compound?
A: 69%

Q: What does the source list for `COc1ccccc1N1CCN(CCn2cnc3ccccc3c2=O)CC1` [Example 6, 3-(2-(4-(2-methoxyphenyl)piperazine-1-yl)ethyl)quinazoline-4 (3H)-one]?
A: inhibition at 0.3 µM (5-HT2A receptors): 43%; inhibition at 1 µM (5-HT2A receptors): 63%; inhibition at 0.03 µM (5-HT1A receptors): 38%; inhibition at 0.1 µM (5-HT1A receptors): 66%

Q: What does the source list for `O=c1c2ccccc2ncn1CCN1CCN(c2ccccc2Cl)CC1` [Example 4, 3-(2-(4-(2-chlorophenyl)piperazine-1-yl)ethyl)quinazoline-4 (3H)-one]?
A: inhibition at 0.3 µM (5-HT2A receptors): 48%; inhibition at 1 µM (5-HT2A receptors): 77%; inhibition at 0.03 µM (5-HT1A receptors): 22%; inhibition at 0.1 µM (5-HT1A receptors): 84%

Q: With `Cc1cccc(N2CCN(CCn3cnc4ccccc4c3=O)CC2)c1C` [Example 3, 3-(2-(4-(2,3-dimethylphenyl)piperazine-1-yl)ethyl)quinazoline-4 (3H)-one] as the compound, how does the inhibition at 0.3 µM (5-HT2A receptors) read?
A: 89%

Q: And the inhibition at 1 µM (5-HT2A receptors)?
A: 88%

Q: And the inhibition at 0.03 µM (5-HT1A receptors)?
A: 47%

Q: And the inhibition at 0.1 µM (5-HT1A receptors)?
A: 84%

Q: For `CCc1nc2ccccc2c(=O)n1CCN1CCN(c2cccc(C)c2C)CC1` [Example 8, 3-(2-(4-(2,3-dimethylphenyl)piperazine-1-yl)ethyl)-2-ethylquinazoline-4 (3H)-one], which inhibition at 0.3 µM (5-HT2A receptors) is on record?
A: 67%

Q: And the inhibition at 1 µM (5-HT2A receptors)?
A: 86%

Q: What about the inhibition at 3 µM (5-HT2A receptors) of the same compound?
A: 94%

Q: And the inhibition at 0.03 µM (5-HT1A receptors)?
A: 26%

Q: And the inhibition at 0.1 µM (5-HT1A receptors)?
A: 76%

Q: What about the inhibition at 0.3 µM (5-HT1A receptors) of the same compound?
A: 77%

Q: Which results are given for `O=c1[nH]c2ccccc2n1CCN1CCN(c2cccc(C(F)(F)F)c2)CC1` [Comparative Compound, 1.3-Dihydro-1-(2-(4-(3-(trifluoromethyl)phenyl)-1-piperazinyl)ethyl)-2H-benzimidizol-2-one, reference compound]?
A: IC50 (5-HT2A receptors): 453 nM; IC50 (5-HT1A receptors): 47 nM; 5-HT2A/5-HT1A CI502A/CI501A (5-HT1A receptors): 9.6; signs of stimulation of the 5-HT receptors (HT, FPT, FBP, HLS, LLR, STF) (5-HT receptors): only one presented signs of stimulation of the 5-HT receptors, which were spontaneous tail flicks

Q: How did the IC50 (5-HT2A receptors) turn out when `CCc1nc2ccccc2c(=O)n1CCN1CCN(c2cccc(C(F)(F)F)c2)CC1` [Example 7, 2-ethyl-3-(2-(4-(3-(trifluoromethyl)phenyl)piperazine-1-yl)ethyl)quinazoline-4 (3H)-one] was run?
A: 707 nM

Q: What about the “5-HT2A CI50/affinity compared with the comparative compound” value (5-HT2A receptors) of the same compound?
A: greater affinity than the comparison compound and the compound in Example 1

Q: And the IC50 (5-HT1A receptors)?
A: 253 nM

Q: And the “5-HT1A CI50 compared with the comparative compound” value (5-HT1A receptors)?
A: five times greater

Q: What about the “5-HT2A/5-HT1A CI502A/CI501A” value (5-HT1A receptors) of the same compound?
A: 2.7

Q: What about the “signs of stimulation of the 5-HT receptors (HT, FPT, FBP, HLS, LLR, STF)” value (5-HT receptors) of the same compound?
A: triggered fore paw treading (FPT) and more spontaneous tail flicks (STF)

Q: Which results are given for `O=c1c2ccccc2ncn1CCN1CCN(c2cccc(C(F)(F)F)c2)CC1` [Example 1, 3-(2-(4-(3-(trifluoromethyl)phenyl)piperazine-1-yl)ethyl)quinazoline-4 (3H)-one]?
A: IC50 (5-HT2A receptors): 570 nM; 5-HT2A CI50/affinity compared with the comparative compound (5-HT2A receptors): a value slightly higher than the value obtained for the comparative compounds; IC50 (5-HT1A receptors): 47 nM; 5-HT1A CI50 compared with the comparative compound (5-HT1A receptors): the same CI50 value as the comparative compound; 5-HT2A/5-HT1A CI502A/CI501A (5-HT1A receptors): 12; signs of stimulation of the 5-HT receptors (HT, FPT, FBP, HLS, LLR, STF) (5-HT receptors): triggered spontaneous tail flicks (STF)

Q: Which inhibition at 0.3 µM (5-HT2A receptors) does the source give for `CCOc1ccccc1N1CCN(CCn2c(CC)nc3ccccc3c2=O)CC1` [Example 10, 2-ethyl-3-(2-(4-(2-ethoxyphenyl)piperazine-1-yl)ethyl)quinazoline-4 (3H)-one] here?
A: 8%

Q: What about the inhibition at 1 µM (5-HT2A receptors) of the same compound?
A: 27%

Q: And the inhibition at 3 µM (5-HT2A receptors)?
A: 58%

Q: What about the inhibition at 0.03 µM (5-HT1A receptors) of the same compound?
A: 26%

Q: And the inhibition at 0.1 µM (5-HT1A receptors)?
A: 51%

Q: What about the inhibition at 0.3 µM (5-HT1A receptors) of the same compound?
A: 79%
